assay: Human HepG2 cell viability assay in 384 well format; format: toxicity, cell-based; design: dose 125 nL, time 70.5 hour; cytotoxicity at 70.5 h: concentration not given beside the values; conditions: HepG2 cells, read-out: Inhibition

Row | SMILES | cytotoxicity at 70.5 h [%]
1 | CN(C)c1cc(CNC(=O)c2cccc(F)c2)ccn1 | 12.7
2 | Cn1ccnc1NC[C@@H]1CCC[C@@H]2CN(Cc3nccs3)C[C@@H]21 | -0.236
3 | Cn1cncc1CN1CCC2(CC1)COCCN(S(C)(=O)=O)C2 | -8.74
4 | COc1cccc(CNC2CCSC2)c1OC (stereo unspecified) | -7.09
5 | CCCS(=O)(=O)N1CCC2(CC1)CN(CC1CCOC1)c1ccccc12 (stereo unspecified) | 3.95
6 | O=C(CCn1cnc2ccccc21)N1CCN2CCCCC2C1 (stereo unspecified) | 27.2
7 | CC(C)N(Cc1ccccn1)C(=O)CCC(=O)c1ccccc1 | -7.32
8 | O=C(COC1CCCC1)N1C[C@@H]2COC[C@]2(COc2cccnc2)C1 | 3.14
9 | Cc1nnc(NC(=O)N2CCN(Cc3ccc(F)cc3)C(=O)C2)s1 | 1.21
10 | CCOC(=O)NC(CNC(=O)c1cn(C)cn1)CC(C)C (stereo unspecified) | -1.97
11 | O=C(c1ccc(F)cc1)N1CCC2(CCN(Cc3ccccn3)C2=O)C1 (stereo unspecified) | -5.2
12 | O=C(C1CC2(CCNCC2)CN1)N1CCN(c2ccccc2)CC1 (stereo unspecified) | 14.5
13 | CS(=O)(=O)N[C@H]1CN(C(=O)CCc2ccc(=O)[nH]n2)C[C@@H]1C1CC1 | -7.22
14 | CN(CCOCC1CC1)C(=O)Nc1ccc([S+](C)[O-])c(F)c1 (stereo unspecified) | 21.5
15 | NC(=O)C1=NC2=NS(=O)(=O)c3ccccc3N2N1Cc1ccc(Br)cc1 | -7.39
16 | Cc1ccc(C2CSCCN2C(=O)c2ccncc2)cc1 (stereo unspecified) | 0.0663
17 | CCn1nc(C)c2nc(C)nc(N(C)Cc3ccco3)c21 | -21.8
18 | CNC(=O)[C@H]1C[C@@H]2CN(S(=O)(=O)c3ccccc3)C[C@@H]2N1C | -8.21
19 | COc1ccc(C(NC(=O)c2cccc[n+]2[O-])C2CC2)cc1 (stereo unspecified) | -3.04
20 | CCCn1ncc(C(=O)N2CCN([C@H]3CCCC[C@@H]3O)CC2)c1C | -0.657
21 | Cc1nc(CN2CCC(c3nc4ccccc4n3C)CC2)co1 | -24.4

Row | SMILES | cytotoxicity at 70.5 h [%]
22 | CCc1ccc(CN2CCN(c3ccc(C(N)=O)cn3)CC2)nc1 | 2.82
23 | CCCn1ccnc1CN1CCC(O)(CN2CCCCC2)C1 (stereo unspecified) | -4.35
24 | O=C(NC[C@]12COC[C@H]1CN(Cc1cccnc1)C2)C1CCC1 | -4.65
25 | O=C(Nc1ccc(F)cc1)N1CCC(CO)(Nc2ccccc2)CC1 | 0.526
26 | COc1ccc(C2=CCN(C(=O)C3CCCN(C(N)=O)C3)CC2)cc1 (stereo unspecified) | -6.51
27 | COCCCSc1ccc(NCc2cscn2)cc1 | -2.43
28 | FC(F)(F)Oc1cccc(CNCc2ccc(-n3cncn3)nc2)c1 | 26.6
29 | COCc1nc2ncc3c(=O)n(-c4ccccc4OC)ccc3n2n1 | -5.8
30 | O=C(Nc1ccccc1)N1CCC2(CC(=O)N(c3ccsc3)C2)C1 (stereo unspecified) | -10
31 | Cc1nnc([C@H]2C[C@H]3OCC[C@H]3N(S(=O)(=O)CC(C)C)C2)o1 | -1.29
32 | NC(=O)C1(c2cnccn2)CCCN1Cc1ccc(Cl)cc1 (stereo unspecified) | -9.51
33 | CC(C)(C)n1cc(C(=O)N2CCN(Cc3ccccc3F)CC2)cn1 | 5.09
34 | CCC(=O)N1CCC(Cc2cc(Nc3ncccn3)ncn2)CC1 | -4.23
35 | CC(=O)NCCC(=O)Nc1sccc1C(=O)C(C)(C)C | 2.44
36 | CN(C)C(=O)Cn1ccc2cc(NC(=O)N3CCOCC3)ccc21 | -5.35
37 | O=C1CC(c2ccncc2)c2c(sc3c2CCCC3)N1 (stereo unspecified) | -13.1
38 | Cc1nccn1CC1CCN(C(=O)Cc2ccccc2)CC1 | 24.1
39 | Clc1cccc2c3c([nH]c12)CCN(Cc1cc2n(n1)CCNC2)C3 | 22.8
40 | CSCC(=O)N1CCCC(CO)(CC2CC2)C1 (stereo unspecified) | -11
41 | CCC(O)CN1CCN(C(=O)c2ccc(N(C)C)nn2)CC1 (stereo unspecified) | -2.61
42 | CCCn1c(C)c(CC(=O)NCCC(N)=O)c2c1CC(C)(C)CC2=O | 11.1

Row | SMILES | cytotoxicity at 70.5 h [%]
43 | CN(C(=O)CN1CCC(c2cc3ccccc3[nH]2)CC1)C1CC1 | -8.97
44 | Cc1nn(C)c(N2CCOCC2)c1CNCc1ccccc1CO | -10.1
45 | Cn1cccc1CN1CCC2(CCCN(C(=O)c3cccnc3)C2)CC1 | -2.44
46 | COc1ccc(N2CCN(Cc3noc(CC(C)C)n3)C(C)C2=O)cc1 (stereo unspecified) | -24.6
47 | CC1(c2ncc(CN3CCSCC3)cn2)CCCCO1 (stereo unspecified) | -11.9
48 | c1cc(CN2CCC(c3nnc4n3CCCCC4)CC2)c2nonc2c1 | 12.2
49 | O=C1N(Cc2cccc(F)c2F)CCCC1(O)CNCc1ccccn1 (stereo unspecified) | -2.1
50 | NC(=O)Cn1nc(-c2ccccc2F)ccc1=O | -9.13
51 | CN1CCC(N(C)C[C@H]2CC[C@@H](Cc3cccc(CO)c3)O2)CC1 | 5.66
52 | O=C(O)c1nnn(Cc2ccc(F)cc2)c1-c1cccnc1 | -10.1
53 | COc1ccccc1OC1(C(=O)O)CCN(c2nccnc2C)CC1 | -5.26
54 | Cc1ccc(C)c(C(=O)NC2CCC(N3C(=O)CCC3=O)CC2)c1 (stereo unspecified) | 3.79
55 | COCCC1(C(=O)O)CCCN(C(=O)c2cc(F)ccc2OC)C1 (stereo unspecified) | -10.6
56 | Cc1nc[nH]c1CNC1CC(=O)N(CCc2cccc(Cl)c2)C1 (stereo unspecified) | -2.03
57 | Nc1nc(CCNc2ncnc3c2CCN(C(=O)C2CC2)C3)cs1 | -11.6
58 | CCc1cnccc1C(=O)NC1CCN(C(=O)OC)CC1 | 24.5
59 | COc1cccc2c1OCC(CNC(=O)CCn1cnnn1)C2 (stereo unspecified) | -1.24
60 | Cc1cccc(CN2C[C@@H]3CCCO[C@@H]3[C@H](Nc3ccccn3)C2)n1 | 1.63
61 | CCCn1ncc(C2CC(=O)NCc3nc4cc(C)ccn4c32)c1C (stereo unspecified) | 2.43
62 | O=C(NCC1(O)COCCN(Cc2cccc(O)c2)C1)c1ccccn1 (stereo unspecified) | -5.55
63 | CCNC(=O)C1(CC2CC(c3ccccc3OC)=NO2)CCOCC1 (stereo unspecified) | -0.996

Row | SMILES | cytotoxicity at 70.5 h [%]
64 | COc1cc(NCC(c2ccccn2)N2CCOCC2)ncn1 (stereo unspecified) | -3.18
65 | Cc1cnc(CN(C)CC2CCCN2c2cccnn2)cn1 (stereo unspecified) | 14.1
66 | CC(c1ccccn1)N(C)Cc1ccc(-n2cncn2)cc1 (stereo unspecified) | -8.14
67 | Cc1ncsc1-c1nc(-c2cccc(CN3CCOCC3)c2)no1 | -6.25
68 | Cc1c(-c2cccs2)nn2c(O)c3c(nc12)CN(C(=O)C1CC1)C3 | -4.82
69 | O=C(Cc1ccc(S(=O)(=O)C(F)F)cc1)N1CCCC1 | -5.59
70 | COc1cccc(C(C(=O)O)N2CCSCC2)c1F (stereo unspecified) | 13
71 | Cc1ccc(C)c(Oc2ccc(CNC(=O)C3CCC(=O)N3)cn2)c1 (stereo unspecified) | -4.69
72 | O=C(Nc1ccccn1)NC1CCN(c2ccccc2OC(F)F)C1 (stereo unspecified) | -2.08
73 | Cc1ccc(CS(=O)(=O)N2CC[C@H]3[C@H]2CC(=O)N3C)cc1 | -10.2
74 | Cc1cccc(Nc2ccc(C3CCCCN3)cn2)n1 (stereo unspecified) | 4.51
75 | CN(Cc1ccc(-n2cccn2)cc1)Cc1cnc(N(C)C)nc1 | -8.45
76 | O=C(NCC1CCSCC1)N(CCCO)C1CCc2ccccc21 (stereo unspecified) | 24.2
77 | CNS(=O)(=O)CCn1cc(-c2ccc(OC)c(OC)c2)nn1 | -4.16
78 | COCCNC(=O)c1c(-n2cnnn2)sc2c1CCCC2 | -4.74
79 | CN(Cc1cnc(N)nc1)C(=O)c1coc(COc2ccccc2)n1 | -2.22
80 | CCc1nnc2n1CCN(CCC(=O)Nc1cc(C)on1)C2 | -5.92
81 | NCCc1c(-c2ccccc2)[nH][nH]c1=O | -7.56

Reference: ChEMBL document CHEMBL3507680, “University of Dundee, Gates Library screen for HepG2 cell viability”
